Results published in ChEMBL document CHEMBL1139064, “Carbonic anhydrase activators: an activation study of the human mitochondrial isoforms VA and VB with amino acids and amines” (Bioorg Med Chem Lett, 2007).

Key:
[1] = target: Carbonic anhydrase 5B, mitochondrial (Homo sapiens) (UniProt Q9Y2D0); assay: Activation of human recombinant carbonic anhydrase 5B by stopped-flow CO2 hydrase method
[2] = target: Carbonic anhydrase 5A, mitochondrial (Homo sapiens) (UniProt P35218); assay: Activation of human recombinant carbonic anhydrase 5A by stopped-flow CO2 hydrase method
Carbonic anhydrase 5A, mitochondrial (Homo sapiens), sequence (P35218 whole entry): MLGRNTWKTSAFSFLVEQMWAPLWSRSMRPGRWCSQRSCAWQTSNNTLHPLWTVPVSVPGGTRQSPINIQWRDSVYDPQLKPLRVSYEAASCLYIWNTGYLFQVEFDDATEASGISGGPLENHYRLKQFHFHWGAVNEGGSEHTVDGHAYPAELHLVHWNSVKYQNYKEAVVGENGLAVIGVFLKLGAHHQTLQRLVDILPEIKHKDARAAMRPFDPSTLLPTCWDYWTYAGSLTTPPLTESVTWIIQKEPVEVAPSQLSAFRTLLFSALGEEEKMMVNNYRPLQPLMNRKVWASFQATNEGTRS

Carbonic anhydrase 5B, mitochondrial (Homo sapiens), sequence (Q9Y2D0 whole entry): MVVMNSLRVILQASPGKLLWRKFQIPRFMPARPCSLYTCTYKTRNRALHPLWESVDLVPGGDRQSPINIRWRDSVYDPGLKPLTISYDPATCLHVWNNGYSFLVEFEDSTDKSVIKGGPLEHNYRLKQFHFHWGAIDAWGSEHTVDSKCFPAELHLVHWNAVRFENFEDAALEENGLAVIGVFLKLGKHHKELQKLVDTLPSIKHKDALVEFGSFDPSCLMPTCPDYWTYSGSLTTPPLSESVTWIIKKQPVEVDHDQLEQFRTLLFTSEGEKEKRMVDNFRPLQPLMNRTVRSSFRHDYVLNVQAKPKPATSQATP

| SMILES | KA [1] [µM] | KA [2] [µM] |
| --- | --- | --- |
| N[C@@H](Cc1c[nH]c2ccccc12)C(=O)O | 0.89 | 1.13 |
| N[C@H](Cc1ccc(O)c(O)c1)C(=O)O | 3.71 | 4.59 |
| NCCN1CCOCC1 | 1.15 | 0.089 |
| NCc1ccccn1 | 0.24 | 23.6 |
| NCCc1c[nH]c2ccc(O)cc12 | 0.11 | 6.33 |
| NCCc1ccc(O)c(O)c1 | 7.85 | 0.13 |
| N[C@@H](Cc1ccc(O)cc1)C(=O)O | 0.044 | 2.45 |
| Nc1ccc(C[C@H](N)C(=O)O)cc1 | 2.17 | 2.76 |
| N[C@H](Cc1c[nH]c2ccccc12)C(=O)O | 1.35 | 1.24 |
| N[C@@H](Cc1ccc(O)c(O)c1)C(=O)O | 0.063 | 0.036 |
| NCCc1ccccn1 | 0.094 | 7.62 |
| N[C@H](Cc1c[nH]cn1)C(=O)O | 4.38 | 0.12 |
| NCCc1c[nH]cn1 | 3.52 | 0.01 |
| N[C@@H](Cc1c[nH]cn1)C(=O)O | 0.97 | 1.34 |
| NCCN1CCNCC1 | 0.91 | 6.04 |
